From ChEMBL document CHEMBL1201862, “PubChem BioAssay data set” (2004)
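These data come from cells grown in 96-well plates and exposed to compound for 48 hours at five concentrations. GI50 is the concentration that inhibits growth by half.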 Activity calls are given as the source filed them. Rule as the data show it: active = GI50 up to about 1.1 µM and inactive = higher.

Key:
Experiment in all cases: growth of human tumour cells (NCI), 48 h
HCT-116 = system: HCT-116
NCI-H460 = system: NCI-H460
786-0 = system: 786-0
SK-OV-3 = system: SK-OV-3
LXFL 529 = system: LXFL 529
SK-MEL-5 = system: SK-MEL-5
HOP-92 = system: HOP-92
KM-20L2 = system: KM-20L2
Malme-3M = system: Malme-3M
U-251 = system: U-251
DLD-1 = system: DLD-1
SNB-19 = system: SNB-19
UO-31 = system: UO-31
OVCAR-3 = system: OVCAR-3
MOLT-4 = system: MOLT-4
NCI-H522 = system: NCI-H522
SF-539 = system: SF-539
UACC-62 = system: UACC-62
RPMI-8226 = system: RPMI-8226
SN12C = system: SN12C
KM12 = system: KM12
M19-MEL = system: M19-MEL
ACHN = system: ACHN
OVCAR-4 = system: OVCAR-4
DMS-273 = system: DMS-273
XF498 = system: XF498
HT-29 = system: HT-29
M14 = system: M14
K562 = system: K562
OVCAR-5 = system: OVCAR-5
HCC 2998 = system: HCC 2998
SF-295 = system: SF-295
COLO 205 = system: COLO 205
UACC-257 = system: UACC-257
HL-60 = system: HL-60
A549 = system: A549
CAKI-1 = system: CAKI-1
SNB-78 = system: SNB-78
HCT-15 = system: HCT-15
TK-10 = system: TK-10
NCI-H23 = system: NCI-H23
SF-268 = system: SF-268
CCRF-CEM = system: CCRF-CEM
A498 = system: A498
SW-620 = system: SW-620
EKVX = system: EKVX
IGROV-1 = system: IGROV-1
SK-MEL-28 = system: SK-MEL-28
OVCAR-8 = system: OVCAR-8
SK-MEL-2 = system: SK-MEL-2
HOP-62 = system: HOP-62
DMS-114 = system: DMS-114
LOX IMVI = system: LOX IMVI
SNB-75 = system: SNB-75
RXF 393 = system: RXF 393

CCOC(=O)COc1cccc2occc(=O)c12
GI50 (HCT-116): > 100 µM (inactive)
GI50 (NCI-H460): > 100 µM (inactive)
GI50 (786-0): > 100 µM (inactive)
GI50 (SK-OV-3): > 100 µM (inactive)
GI50 (LXFL 529): > 100 µM (inactive)
GI50 (SK-MEL-5): > 100 µM (inactive)
GI50 (HOP-92): > 100 µM (inactive)
GI50 (KM-20L2): > 100 µM (inactive)
GI50 (Malme-3M): > 100 µM (inactive)
GI50 (U-251): > 100 µM (inactive)
GI50 (DLD-1): > 100 µM (inactive)
GI50 (SNB-19): > 100 µM (inactive)
GI50 (UO-31): > 100 µM (inactive)
GI50 (OVCAR-3): > 100 µM (inactive)
GI50 (MOLT-4): > 100 µM (inactive)
GI50 (NCI-H522): > 100 µM (inactive)
GI50 (SF-539): > 100 µM (inactive)
GI50 (UACC-62): > 100 µM (inactive)
GI50 (RPMI-8226): > 100 µM (inactive)
GI50 (SN12C): > 100 µM (inactive)
GI50 (KM12): > 100 µM (inactive)
GI50 (M19-MEL): > 100 µM (inactive)
GI50 (ACHN): > 100 µM (inactive)
GI50 (OVCAR-4): > 100 µM (inactive)
GI50 (DMS-273): > 100 µM (inactive)
GI50 (XF498): > 100 µM (inactive)
GI50 (HT-29): > 100 µM (inactive)
GI50 (M14): > 100 µM (inactive)
GI50 (K562): > 100 µM (inactive)
GI50 (OVCAR-5): > 100 µM (inactive)
GI50 (HCC 2998): > 100 µM (inactive)
GI50 (SF-295): > 100 µM (inactive)
GI50 (COLO 205): > 100 µM (inactive)
GI50 (UACC-257): > 100 µM (inactive)
GI50 (HL-60): > 100 µM (inactive)
GI50 (A549): > 100 µM (inactive)
GI50 (CAKI-1): > 100 µM (inactive)
GI50 (SNB-78): > 100 µM (inactive)
GI50 (HCT-15): > 100 µM
GI50 (TK-10): > 100 µM (inactive)
GI50 (NCI-H23): > 100 µM (inactive)
GI50 (SF-268): > 100 µM (inactive)
GI50 (CCRF-CEM): > 100 µM (inactive)
GI50 (A498): > 100 µM (inactive)
GI50 (SW-620): > 100 µM (inactive)
GI50 (EKVX): > 100 µM (inactive)
GI50 (IGROV-1): > 100 µM (inactive)
GI50 (SK-MEL-28): > 100 µM (inactive)
GI50 (OVCAR-8): > 100 µM (inactive)
GI50 (SK-MEL-2): > 100 µM (inactive)
GI50 (HOP-62): > 100 µM (inactive)
GI50 (DMS-114): > 100 µM (inactive)
GI50 (LOX IMVI): > 100 µM (inactive)

COc1cc(CNc2ccc(C)cc2)cc(OC)c1OC
GI50 (NCI-H460): 0.471 µM (active)
GI50 (786-0): 0.376 µM (active)
GI50 (SK-OV-3): 0.251 µM (active)
GI50 (SNB-75): 0.21 µM (active)
GI50 (RXF 393): 0.301 µM (active)
GI50 (LXFL 529): 0.46 µM (active)
GI50 (SK-MEL-5): 0.923 µM (active)
GI50 (KM-20L2): 0.159 µM (active)
GI50 (U-251): 0.252 µM (active)
GI50 (DLD-1): 0.375 µM (active)
GI50 (SNB-19): 0.356 µM (active)
GI50 (UO-31): 0.843 µM (active)
GI50 (OVCAR-3): 0.179 µM (active)
GI50 (MOLT-4): 0.175 µM (active)
GI50 (RPMI-8226): 0.5 µM (active)
GI50 (M19-MEL): 0.252 µM (active)
GI50 (DMS-273): 0.0925 µM (active)
GI50 (XF498): 1.29 µM (inactive)
GI50 (K562): 0.148 µM (active)
GI50 (OVCAR-5): 1.02 µM (active)
GI50 (COLO 205): 0.151 µM (active)
GI50 (UACC-257): 7.05 µM (inactive)
GI50 (HL-60): 0.0948 µM (active)
GI50 (A549): 0.423 µM (active)
GI50 (NCI-H23): 0.277 µM (active)
GI50 (SF-268): 0.615 µM (active)
GI50 (CCRF-CEM): 0.259 µM (active)
GI50 (SW-620): 0.11 µM (active)
GI50 (IGROV-1): 0.577 µM (active)
GI50 (OVCAR-8): 0.65 µM (active)
GI50 (SK-MEL-2): 0.417 µM (active)
GI50 (HOP-62): 0.44 µM (active)
GI50 (DMS-114): 0.225 µM (active)
GI50 (LOX IMVI): 0.46 µM (active)
